Test: log P determination (HPLC, calibration with unbranched alkan-2-ones)
Assay type: physicochemical
Settings: * LC-MS determination in the acidic range at pH 2.7, 0.1% aqueous formic acid and acetonitrile, linear gradient 10% to 95% acetonitrile, reversed-phase C 18
Procedure: The calibration is carried out using unbranched alkan-2-ones (having 3 to 16 carbon atoms) with known log P values (determination of the log P values by the retention times using linear interpolation between two successive alkanones). The lambda-maX values were determined in the maxima of the chromatographic signals using the UV spectra from 200 nm to 400 nm.
For `O=C(OCCc1ccc(F)cc1)c1csc(C2CCN(C(=O)Cn3ccc(C(F)(F)F)n3)CC2)n1` [compound 126], the log p was 3.27*. For `O=C(Oc1ccccc1)c1csc(C2CCN(C(=O)Cn3ccc(C(F)(F)F)n3)CC2)n1` [compound 127], the log p was 2.85*. In the case of `O=C(Oc1ccc(F)cc1)c1csc(C2CCN(C(=O)Cn3ccc(C(F)(F)F)n3)CC2)n1` [compound 128], the log p is reported as 2.89*. With `O=C(OCc1ccncc1)c1csc(C2CCN(C(=O)Cn3ccc(C(F)(F)F)n3)CC2)n1` [compound 142] the log p was 1.32*. With `O=C(OCc1cccs1)c1csc(C2CCN(C(=O)Cn3ccc(C(F)(F)F)n3)CC2)n1` [compound 143] the log p was 2.85*. For `Cc1c(Cl)c(C(F)(F)F)nn1CC(=O)N1CCC(c2nc(C(=O)OC[Si](C)(C)C)cs2)CC1` [compound 144], the log p was 4.28*. In the case of `Cc1c(Cl)c(C(F)(F)F)nn1CC(=O)N1CCC(c2nc(C(=O)OC3CCCCC3)cs2)CC1` [compound 145], the log p is reported as 4.17*. With `Cc1c(Cl)c(C(F)(F)F)nn1CC(=O)N1CCC(c2nc(C(=O)OC3CCCC3)cs2)CC1` [compound 146] the log p was 3.84*. For `Cc1c(Cl)c(C(F)(F)F)nn1CC(=O)N1CCC(c2nc(C(=O)OC3CCCc4ccccc43)cs2)CC1` (stereo not shown) [compound 149], the log p was 4.40*. With `Cc1c(Cl)c(C(F)(F)F)nn1CC(=O)N1CCC(c2nc(C(=O)OC3CCCC4CCCCC43)cs2)CC1` (stereo not shown) [compound 150] the log p was 5.44*. For `Cc1c(Cl)c(C(F)(F)F)nn1CC(=O)N1CCC(c2nc(C(=O)OC3CCc4ccccc43)cs2)CC1` (stereo not shown) [compound 151], the log p was 4.17*. With `Cc1c(Cl)c(C(F)(F)F)nn1CC(=O)N1CCC(c2nc(C(=O)Oc3cccc4ccccc34)cs2)CC1` [compound 152] the log p was 4.17*. For `Cc1c(Cl)c(C(F)(F)F)nn1CC(=O)N1CCC(c2nc(C(=O)Oc3ccc4ccccc4c3)cs2)CC1` [compound 153], the log p was 4.17*. In the case of `Cc1c(Cl)c(C(F)(F)F)nn1CC(=O)N1CCC(c2nc(C(=O)OCc3ccccc3)cs2)CC1` [compound 154], the log p is reported as 3.73*. For `Cc1c(Cl)c(C(F)(F)F)nn1CC(=O)N1CCC(c2nc(C(=O)OCc3ccc(F)cc3)cs2)CC1` [compound 155], the log p was 3.73*. In the case of `Cc1c(Cl)c(C(F)(F)F)nn1CC(=O)N1CCC(c2nc(C(=O)OC(C)c3ccc(F)cc3)cs2)CC1` (stereo not shown) [compound 184], the log p is reported as 3.89*. In the case of `Cc1c(Cl)c(C(F)(F)F)nn1CC(=O)N1CCC(c2nc(C(=O)OCCc3ccc(F)cc3)cs2)CC1` [compound 186], the log p is reported as 3.94*. In the case of `Cc1c(Cl)c(C(F)(F)F)nn1CC(=O)N1CCC(c2nc(C(=O)Oc3ccccc3)cs2)CC1` [compound 187], the log p is reported as 3.58*. With `Cc1c(Cl)c(C(F)(F)F)nn1CC(=O)N1CCC(c2nc(C(=O)Oc3ccc(F)cc3)cs2)CC1` [compound 188] the log p was 3.63*. For `Cc1c(Cl)c(C(F)(F)F)nn1CC(=O)N1CCC(c2nc(C(=O)OCc3ccncc3)cs2)CC1` [compound 217], the log p was 1.82*. For `Cc1c(Cl)c(C(F)(F)F)nn1CC(=O)N1CCC(c2nc(C(=O)OCc3cccs3)cs2)CC1` [compound 218], the log p was 3.58*.

Same assay, conditions: * LC-MS determination in the acidic range, pH 2.7, 0.1% aqueous formic acid / acetonitrile gradient
With `Cc1cc(C(F)(F)F)nn1CC(=O)N1CCCC(c2nc(C(=O)OCc3ccncc3)cs2)C1` (stereo not shown) [compound 292] the log p was 1.51*. For `Cc1cc(C(F)(F)F)nn1CC(=O)N1CCCC(c2nc(C(=O)OCc3cccs3)cs2)C1` (stereo not shown) [compound 293], the log p was 3.23*.

Same assay, conditions: * LC-MS determination in the acidic range, pH 2.7, 0.1% aqueous formic acid and acetonitrile, linear gradient 10% to 95% acetonitrile
For `Cc1ccccc1COC(=O)c1csc(C2CCN(C(=O)Cn3nc(C(F)(F)F)cc3C)CC2)n1` [compound 31], the log p was 3.62*. In the case of `Cc1cc(C(F)(F)F)nn1CC(=O)N1CCC(c2nc(C(=O)OC(C)c3ccc(F)cc3)cs2)CC1` (stereo not shown) [compound 41], the log p is reported as 3.60*. For `CCC(OC(=O)c1csc(C2CCN(C(=O)Cn3nc(C(F)(F)F)cc3C)CC2)n1)c1ccc(F)cc1` (stereo not shown) [compound 42], the log p was 3.89*. For `Cc1cc(C(F)(F)F)nn1CC(=O)N1CCC(c2nc(C(=O)OCCc3ccc(F)cc3)cs2)CC1` [compound 43], the log p was 3.55*. For `Cc1cc(C(F)(F)F)nn1CC(=O)N1CCC(c2nc(C(=O)Oc3ccccc3)cs2)CC1` [compound 44], the log p was 3.20*. With `Cc1cc(C(F)(F)F)nn1CC(=O)N1CCC(c2nc(C(=O)Oc3ccc(F)cc3)cs2)CC1` [compound 45] the log p was 3.26*. In the case of `Cc1cc(C(F)(F)F)nn1CC(=O)N1CCC(c2nc(C(=O)OCc3ccccn3)cs2)CC1` [compound 80], the log p is reported as 2.21*. In the case of `Cc1cc(C(F)(F)F)nn1CC(=O)N1CCC(c2nc(C(=O)OCc3cccs3)cs2)CC1` [compound 81], the log p is reported as 3.22*. For `C[Si](C)(C)COC(=O)c1csc(C2CCN(C(=O)Cn3ccc(C(F)(F)F)n3)CC2)n1` [compound 84], the log p was 3.53*. In the case of `O=C(OC1CCCCC1)c1csc(C2CCN(C(=O)Cn3ccc(C(F)(F)F)n3)CC2)n1` [compound 85], the log p is reported as 3.42*. In the case of `O=C(OC1CCCc2ccccc21)c1csc(C2CCN(C(=O)Cn3ccc(C(F)(F)F)n3)CC2)n1` (stereo not shown) [compound 89], the log p is reported as 3.68*. With `O=C(OC1CCc2ccccc21)c1csc(C2CCN(C(=O)Cn3ccc(C(F)(F)F)n3)CC2)n1` (stereo not shown) [compound 91] the log p was 3.37*. For `O=C(Oc1cccc2ccccc12)c1csc(C2CCN(C(=O)Cn3ccc(C(F)(F)F)n3)CC2)n1` [compound 92], the log p was 3.42*. For `O=C(OCc1ccccc1)c1csc(C2CCN(C(=O)Cn3ccc(C(F)(F)F)n3)CC2)n1` [compound 94], the log p was 2.99*. In the case of `O=C(OCc1ccc(F)cc1)c1csc(C2CCN(C(=O)Cn3ccc(C(F)(F)F)n3)CC2)n1` [compound 95], the log p is reported as 3.04*. In the case of `CC(OC(=O)c1csc(C2CCN(C(=O)Cn3ccc(C(F)(F)F)n3)CC2)n1)c1ccc(F)cc1` (stereo not shown) [compound 124], the log p is reported as 3.18*.

Same assay, conditions: pH 2.7; read-out: log P (pH 2.7)
Compound `Cc1cc(C(F)(F)F)nn1CC(=O)N1CCC(c2nc(C(=O)SC3CCCCC3)cs2)CC1` [compound 76, S-Cyclohexyl 2-(1-{[5-methyl-3-(trifluoromethyl)-1H-pyrazol-1-yl]acetyl}piperidin-4-yl)-1,3-thiazole-4-carbothioate] has a chromatographic logP of 4.51. In the case of `Cc1cc(C(F)(F)F)nn1CC(=O)N1CCC(c2nc(C(=O)Sc3cccc4ccccc34)cs2)CC1` [compound 77, S-1-Naphthyl 2-(1-{[5-methyl-3-(trifluoromethyl)-1H-pyrazol-1-yl]acetyl}piperidin-4-yl)-1,3-thiazole-4-carbothioate], the chromatographic logP is reported as 4.22. Work on `Cc1cc(C(F)(F)F)nn1CC(=O)N1CCC(c2nc(C(=O)OC3CCCCC3)cs2)CC1` [compound 220, Cyclohexyl 2-(1-{[5-methyl-3-(trifluoromethyl)-1H-pyrazol-1-yl]acetyl}piperidin-4-yl)-1,3-thiazole-4-carboxylate] yielded a chromatographic logP of 3.74. For `Cc1cc(C(F)(F)F)nn1CC(=O)N1CCC(c2nc(C(=O)OC3CCCc4ccccc43)cs2)CC1` (stereo not shown) [compound 224, 1,2,3,4-Tetrahydronaphthalen-1-yl 2-(1-{[5-methyl-3-(trifluoromethyl)-1H-pyrazol-1-yl]acetyl}piperidin-4-yl)-1,3-thiazole-4-carboxylate], the chromatographic logP was 4.01. `Cc1cc(C(F)(F)F)nn1CC(=O)N1CCC(c2nc(C(=O)Oc3cccc4ccccc34)cs2)CC1` [compound 227, 1-Naphthyl 2-(1-{[5-methyl-3-(trifluoromethyl)-1H-pyrazol-1-yl]acetyl}piperidin-4-yl)-1,3-thiazole-4-carboxylate] gave a chromatographic logP of 3.75.

Same assay, conditions: reversed-phase (C18) HPLC column; * LC-MS determination in the acidic range, pH 2.7, 0.1% aqueous formic acid / acetonitrile gradient; read-out: log p
For `Cc1cc(C(F)(F)F)nn1CC(=O)N1CCC(c2nc(C(=O)OC3CCCc4ccccc43)cs2)CC1` (stereo not shown) [compound 224, 1,2,3,4-Tetrahydronaphthalen-1-yl 2-(1-{[5-methyl-3-(trifluoromethyl)-1H-pyrazol-1-yl]acetyl}piperidin-4-yl)-1,3-thiazole-4-carboxylate], the chromatographic logP was 4.01. `Cc1cc(C(F)(F)F)nn1CC(=O)N1CCC(c2nc(C(=O)Oc3cccc4ccccc34)cs2)CC1` [compound 227, 1-Naphthyl 2-(1-{[5-methyl-3-(trifluoromethyl)-1H-pyrazol-1-yl]acetyl}piperidin-4-yl)-1,3-thiazole-4-carboxylate] showed a chromatographic logP of 3.75.

Same assay, conditions: reversed-phase (C18) HPLC column; * LC-MS determination in the acidic range, pH 2.7, 0.1% aqueous formic acid and acetonitrile, linear gradient 10% to 95% acetonitrile; read-out: log p
For `Cc1cc(C(F)(F)F)nn1CC(=O)N1CCC(c2nc(C(=O)SC3CCCCC3)cs2)CC1` [compound 76, S-Cyclohexyl 2-(1-{[5-methyl-3-(trifluoromethyl)-1H-pyrazol-1-yl]acetyl}piperidin-4-yl)-1,3-thiazole-4-carbothioate], the chromatographic logP was 4.51. `Cc1cc(C(F)(F)F)nn1CC(=O)N1CCC(c2nc(C(=O)Sc3cccc4ccccc34)cs2)CC1` [compound 77, S-1-Naphthyl 2-(1-{[5-methyl-3-(trifluoromethyl)-1H-pyrazol-1-yl]acetyl}piperidin-4-yl)-1,3-thiazole-4-carbothioate] gave a chromatographic logP of 4.22.

Same assay, conditions: reversed-phase C18 HPLC column; * LC-MS determination in the acidic range at pH 2.7, 0.1% aqueous formic acid and acetonitrile, linear gradient 10% to 95% acetonitrile, reversed-phase C 18; read-out: log p
`Cc1cc(C(F)(F)F)nn1CC(=O)N1CCC(c2nc(C(=O)OC3CCCCC3)cs2)CC1` [compound 220, Cyclohexyl 2-(1-{[5-methyl-3-(trifluoromethyl)-1H-pyrazol-1-yl]acetyl}piperidin-4-yl)-1,3-thiazole-4-carboxylate] gave a chromatographic logP of 3.74.
